In patent US5571831A, “Imidazole derivative, and pharmaceutical composition” (Kureha Chemical Industry Co., Ltd., priority 1992, dated 1996):
≈ marks a conversion by molar mass, not a printed value.

Columns and labels:
Assay in all cases: Minimum inhibitory concentration (agar medium)
Format in all cases: cell-based
[1] = test system: Candida albicans IFO 1060; conditions: IFO1060, 72 h; Candida albicans IFO 1060, 27° C., 3 days, Sabouraud dextrose agar
Description: (§1) The minimum inhibitory concentrations (MIC) in vitro of the compounds 1 to 3 of the present invention against microorganisms belonging to the genera Candida and Aspergillus were determined. (1) The strains of the microorganisms used were as follows. The inoculation solutions were prepared at a concentration of 1×10^6 cells/ml. 1) Candida albicans IFO 1060 (2) As the medium, a Sabouraud dextrose agar medium (Difco: dextrose 2%, agar 1.8%, not adjusted in pH) was used. The samples of the compounds to be tested were used after dissolved in dimethyl sulfoxide. The concentrations of the samples were from […]. The agar media containing the different concentrations of the compounds to be tested were inoculated with the microorganisms, using a microplanter (Sakuma Seisakusho). The microorganisms belonging to the genera Candida were cultured at 27° C. for 3 days, and the microorganisms belonging to the genus Aspergillus at 27° C. for 5 days.

[2] = test system: Candida albicans IFO 1270; conditions: IFO1270, 72 h; Candida albicans IFO 1270, 27° C., 3 days, Sabouraud dextrose agar
Description: as §1, with “cells/ml. 2)” for “cells/ml. 1)”, “IFO 1270” for “IFO 1060”

[3] = test system: Candida albicans ATCC 762; conditions: ATCC762, 72 h; Candida albicans ATCC 762, 27° C., 3 days, Sabouraud dextrose agar
Description: as §1, with “cells/ml. 3)” for “cells/ml. 1)”, “albicans ATCC 762” for “albicans IFO 1060”

[4] = test system: Candida tropicaris IFO 1400; conditions: IFO1400, 72 h; Candida tropicaris IFO 1400, 27° C., 3 days, Sabouraud dextrose agar
Description: as §1, with “cells/ml. 4)” for “cells/ml. 1)”, “Candida tropicaris” for “Candida albicans”, “IFO 1400” for “IFO 1060”

[5] = test system: Candida krusei IFO 1395; conditions: Pichia kudriavzevii, IFO1395, 72 h; Candida krusei IFO 1395, 27° C., 3 days, Sabouraud dextrose agar
Description: as §1, with “cells/ml. 5)” for “cells/ml. 1)”, “Candida krusei” for “Candida albicans”, “IFO 1395” for “IFO 1060”

[6] = test system: Candida parapsilosis IFO 1396; conditions: Lodderomyces parapsilosis, IFO1396, 72 h; Candida parapsilosis IFO 1396, 27° C., 3 days, Sabouraud dextrose agar
Description: as §1, with “cells/ml. 6)” for “cells/ml. 1)”, “Candida parapsilosis” for “Candida albicans”, “IFO 1396” for “IFO 1060”

[7] = test system: Aspergillus fumigatus IFO 5840; conditions: IFO5840, 120 h; Aspergillus fumigatus IFO 5840, 27° C., 5 days, Sabouraud dextrose agar
Description: as §1, with “7) Aspergillus fumigatus” for “1) Candida albicans”, “5840” for “1060”

[8] = test system: Aspergillus fumigatus IFO 9733; conditions: IFO9733, 120 h; Aspergillus fumigatus IFO 9733, 27° C., 5 days, Sabouraud dextrose agar
Description: as §1, with “8) Aspergillus fumigatus” for “1) Candida albicans”, “9733” for “1060”

| MIC [1] [µg/mL] | MIC [2] [µg/mL] | MIC [3] [µg/mL] | MIC [4] [µg/mL] | MIC [5] [µg/mL] | MIC [6] [µg/mL] | MIC [7] [µg/mL] | MIC [8] [µg/mL] | Structure (SMILES) |
| --- | --- | --- | --- | --- | --- | --- | --- | --- |
| 50 (≈ 166 µM) | 100 (≈ 333 µM) | 50 (≈ 166 µM) | 50 (≈ 166 µM) | 200 (≈ 666 µM) | 200 (≈ 666 µM) | 200 (≈ 666 µM) | 200 (≈ 666 µM) | CC1(C)CC[C@@H](c2ccc(O)cc2)C[C@@]1(O)Cn1ccnc1 (relative stereo) [Compound 3, 2,2-dimethyl-5-(4-hydroxyphenyl)-1-(1H-imidazoly-1-yl-methyl)-cyclohexane-1-ol] |
| 50 (≈ 157 µM) | 25 (≈ 78.4 µM) | 25 (≈ 78.4 µM) | 100 (≈ 314 µM) | > 100 | > 100 | 100 (≈ 314 µM) | 100 (≈ 314 µM) | CC1(C)CCC(c2ccc(Cl)cc2)CC1(O)Cn1ccnc1 (racemic) [Compound 2, 2,2-dimethyl-5-(4-chlorophenyl)-1-(1H-imidazol-1-ylmethyl)-cyclohexane-1-ol] |
| 200 (≈ 729 µM) | 200 (≈ 729 µM) | 200 (≈ 729 µM) | > 400 | > 400 | > 400 | > 400 | > 400 | OC1(Cn2ccnc2)CCCC(c2ccc(F)cc2)C1 (centres unmarked) [Compound C, 3-(4-fluorophenyl)-1-(1H-imidazol-1-ylmethyl)-cyclohexane-1-ol, reference compound] |
| 50 (≈ 165 µM) | 50 (≈ 165 µM) | 50 (≈ 165 µM) | 50 (≈ 165 µM) | 50 (≈ 165 µM) | 50 (≈ 165 µM) | 50 (≈ 165 µM) | 50 (≈ 165 µM) | CC1(C)CCC(c2ccc(F)cc2)CC1(O)Cn1ccnc1 (racemic) [Compound 1, 2,2-dimethyl-5-(4-fluorophenyl)-1-(1H-imidazol-1-ylmethyl)-cyclohexane-1-ol] |
